Results on one molecule are retold here after patent US12329755B2, “Bromodomain inhibitors to target therapy-resistant cancer” (University of Tennessee Research Foundation, priority 2019, dated 2025).

The subject of test [1] is X16 BTICs. The settings on record: cited from earlier work.
The subject of test [2] is GFAP. The settings on record: X16 BTICs; cited from earlier work.
The test system of test [3] is GBM cells. Put plainly: survival of mice after intracranial injection of GBM cells. The class given is in vivo. The settings on record: combination with TMZ, intraperitoneal, 10 mg/kg body weight. As for the experimental part: FIG. 6 is a graph showing the survival curves (percent survival versus days after treatment) of mice after intracranial injection of glioblastoma (GBM) cells and intraperitoneal injection of temozolomide (TMZ) or combinations of TMZ and a Brahma-related gene-1 bromodomain inhibitors (BRIs): PFI-3 or one of the presently disclosed PFI-3 analogs (PAs) IV-073 or IV-085. Five mice per group were treated with TMZ with or without the BRI (10 milligrams per kilogram (mg/kg) body weight.
TMZ with or without a BRI was also tested in mice after intercranial injection of GBM cells.

Test [4] has as its target T1, GFP-tagged bromodomain of BRG1 (GFP-BRG1 BRD) (Homo sapiens, UniProt P51532).
T1 construct: a fluorescently tagged bromodomain of BRG1 expressed in MT330 GBM cells; expressed in transfected cells; host or cells: MT330 GBM cells
Description: nuclear localization of fluorescently tagged BRG1 bromodomain in MT330 GBM cells. The class given is cell-based. The settings on record: PFI-3 10 or 30 μM; IV-073 5, 10 or 30 μM; compared to DMSO. From the text:
FIG. 4 is a series of fluorescence microscopy images showing the effects of Brahma-related gene-1 bromodomain inhibitors (BRIs) on the nuclear localization of a green fluorescent protein (GFP)-tagged bromodomain of Brahma-related gene-1 (GFP-BRG1 BRD).
The effects of PFI-3 and its analogs on the nuclear localization of a fluorescently tagged bromodomain of BRG1 expressed in MT330 GBM cells was studied. In the control samples, the fluorescent bromodomain is localized to the nucleus. However, an inhibitor displaces it from the nucleus and the fluorescence signal markedly decreases because it is degraded in the cytoplasm.

Test [5] concerns LN229 TMZ-resistant glioma cell line. Description: IncuCyte live cell imaging proliferation assay. In kind it is cell-based. The procedure:
FIG. 2A is a graph showing relative growth of temozolomide (TMZ)-resistant glioma cells (LN229 cells) alone (control); after treatment with 100 micromolar (μM) TMZ; after treatment with a Brahma-related gene-1 bromodomain inhibitor (BRI), PFI-3 (1 μM); or after treatment with both TMZ and PFI-3 (combined).
FIG. 2B is a graph showing relative growth of temozolomide (TMZ)-resistant glioma cells (LN229 cells) alone (control); after treatment with 100 micromolar (μM) TMZ; after treatment with a Brahma-related gene-1 bromodomain inhibitor (BRI), IV-073 (1 μM); or after treatment with both TMZ and IV-073 (combined).
FIG. 2C is a graph showing relative growth of LN229 Temozolomide (TMZ)-resistant glioma cells alone (control); after treatment with 100 micromolar (μM) TMZ; after treatment with a Brahma-related gene-1 bromodomain inhibitor (BRI), IV-077 (1 μM); or after treatment with both TMZ and IV-077 (combined).
FIG. 2D is a graph showing relative growth of LN229 Temozolomide (TMZ)-resistant glioma cells alone (control); after treatment with 100 micromolar (μM) TMZ; after treatment with a Brahma-related gene-1 bromodomain inhibitor (BRI), IV-085 (1 μM); or after treatment with both TMZ and IV-085 (combined).
To determine whether PFI-3 (also called YH-IV-081) and its analogs (referred to herein as “PAs”) enhanced TMZ sensitivity IncuCyte live cell imaging proliferation assays (high throughput system) were performed with the LN229 TMZ-resistant glioma cell line.

Test [6] relates to X16 BTICs. Description: cell proliferation of X16 BTICs. The class given is cell-based, human. The settings on record: PFI-3 alone. The procedure:
FIG. 1A is a pair of graphs showing the effect of temozolomide (TMZ) on the proliferation of brain-tumor initiating cells (BTICs) obtained from two independent glioblastoma tumors, GBM6 (left) and X16 (right). Relative proliferation is shown for cells treated with 300 micromolar (μM) TMZ or 600 μM TMZ, as well as for untreated cells. *p≤0.05.
BRG1 loss sensitizes BTICs to TMZ in vitro and in vivo: Although the alkylating agent TMZ is front-line chemotherapy in the treatment of GBM, a significant clinical problem is intrinsic or adaptive resistance to TMZ.^63 To evaluate TMZ sensitivity, GBM6 or X16 BTICs were treated with 300 μM or 500 μM TMZ, and cell proliferation was determined. […] Since BRG1 has been implicated in DNA double-strand break repair,^65-67 it was hypothesized that BRG1 loss in BTICs would sensitize BTICs to TMZ. […] To determine whether BRG1-KD sensitized BTICs to TMZ in vivo, animal studies were conducted with control (scrambled shRNA) and BRG1-KD X16 BTICs injected into the flanks of NSG mice. After tumor initiation was confirmed by live animal imaging, mice were treated with TMZ. […] Thus, despite X16 BRG1-KD BTICs producing larger tumors, the tumors were sensitized to TMZ therapy. […]

In test [7] the target is T2, bromodomain of BRG1 (Homo sapiens, UniProt P51532).
T2 construct: The assay involved the use of the bromodomain of BRG1 in MT330 GBM cells; expressed in transfected cells; host or cells: MT330 GBM cells
Description: thermal shift assay of the BRG1 bromodomain in MT330 GBM cells. The class given is binding. The settings on record: 44.5° C. to 55.6° C.; PFI-3 30 μM, IV-073 20 μM, two hours; compared to DMSO. The procedure: FIG. 3 is a series of immunoblot images showing the effects of Brahma-related gene-1 bromodomain inhibitors (BRIs) on the stability of the bromodomain of Brahma-related gene-1 in a thermal assay shift of the bromodomain in glioblastoma cells over a temperature range from 44.5 degrees Celsius (° C.) to 55.6° C. Cells were treated with (middle) PFI-3 (30 micromolar (μM)) for two hours or (right), a PFI-3 analog of the presently disclosed subject matter (IV-073) (20 μM) for two hours. For comparison, control cells treated with dimethyl sulfoxide (DMSO) are shown at […].
To further study the activity of the presently disclosed PFI-3 analogs, a thermal shift assay was employed. The assay involved the use of the bromodomain of BRG1 in MT330 GBM cells at temperatures ranging from 44.5° C. to 55.6° C.

Test [8] concerns embryonic stem cell. The settings on record: cited from earlier work.

Each structure is given as a SMILES string.

T2 sequence (P51532 1453-1564 limits assumed): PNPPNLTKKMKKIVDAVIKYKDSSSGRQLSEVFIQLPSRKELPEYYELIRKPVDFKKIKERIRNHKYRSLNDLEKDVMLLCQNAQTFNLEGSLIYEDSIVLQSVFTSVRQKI
T1 sequence (P51532 1453-1564 limits assumed): as above

With `O=C(/C=C/N1C[C@H]2C[C@@H]1CN2c1ccccn1)c1ccccc1O` [PFI-3, (E)-1-(2-hydroxyphenyl)-3-((1R,4R)-5-(pyridin-2-yl)-2,5-diazabicyclo[2.2.1]heptan-2-yl)prop-2-en-1-one], the “sensitization to Carmustine” value in test [1] (X16 BTICs, PFI-3 treatment) is reported as “sensitized”. Besides, in test [1] (combination of TMZ and PFI-3, versus either agent alone), the “effect on X16 BTIC proliferation” value is “markedly greater effect on X16 BTIC proliferation than either agent alone”. In addition, the GFAP protein expression entry in test [2] is “upregulated GFAP protein expression”. Moreover, the animal survival result in test [3] was “enhanced animal survival”. Further, the “displacement of the BRG1 bromodomain from the nucleus” value in test [4] is recorded as “displaces the BRG1 bromodomain from the nucleus”. Moreover, in test [5] (BRI 1 μM combined with 100 μM TMZ), the “sensitization to TMZ” value is “potently sensitized”. The “effect on cell growth” value in test [5] (BRI alone (1 μM)) is recorded as “relatively minor effects on cell growth”. In test [6], the “effect on BTIC proliferation” value is listed as “only a slight growth inhibitory effect”. Moreover, the “stabilization of the BRG1 bromodomain” value in test [7] is on record as “stabilizes the BRG1 bromodomain”. For the same molecule, in test [8], the “embryonic stem cell phenotype” value is given as “inhibits the embryonic stem cell phenotype”.
